Assay results reported in patent publication US20060069132A1, “Azolecarboxamide herbicides” (priority 2004, published 2006).

Experiments:
Assay in all cases: Test C postemergence herbicide test
Italian ryegrass = assay type: in vivo, Lolium multiflorum
Outline: (§1)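 Scoring by eye, 12–14 days post-treatment, greenhouse-held plants vs. controls; 0 no effect, 100 complete control. Sprayed at 1–4 leaves (2–18 cm); paddy barnyardgrass at 2 leaves, flooded.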

canarygrass = assay type: in vivo, Phalaris minor
Outline: as §1

downy bromegrass = assay type: in vivo, Bromus tectorum
Outline: as §1

windgrass = assay type: in vivo, Apera spica-venti
Outline: as §1

wheat = assay type: in vivo, Triticum aestivum
Outline: as §1

green foxtail = assay type: in vivo, Setaria viridis
Outline: as §1

winter barley = assay type: in vivo, Hordeum vulgare; conditions: for Barley, Winter plant response rating: 500 g ai/ha
Outline: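 After a postemergence application at 1 to 4 leaves (plants 2–18 cm high), or at 2 leaves for barnyardgrass in flooded paddy, plants stayed in the greenhouse for 12 to 14 days. Damage was then judged visually relative to control plants, with 100 indicating complete control.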

wild oat = assay type: in vivo, Avenafatua
Outline: as §1

[1] = Postemergence, 250 g ai/ha, scale 0 to 100, 0 no effect, 100 complete control
[2] = postemergence, 125 g ai/ha, scale 0 to 100
[3] = postemergence, 62 g ai/ha, scale 0 to 100
[4] = postemergence, 31 g ai/ha, scale 0 to 100
[5] = postemergence, 125 g ai/ha, scale 0 to 100 (0 no effect, 100 complete control)
[6] = postemergence, 62 g ai/ha, scale 0 to 100 (0 no effect, 100 complete control)
[7] = Postemergence, 500 g ai/ha, scale 0 to 100
[8] = Postemergence, 500 g ai/ha, scale 0 to 100, 0 no effect, 100 complete control

| Structure (SMILES) | Plant response rating, Ryegrass, Italian (Italian ryegrass; [2]) | Plant response rating, Ryegrass, Italian (Italian ryegrass; [3]) | Plant response rating, Canarygrass (canarygrass; [1]) | Plant response rating, Canarygrass (canarygrass; [2]) | Plant response rating, Canarygrass (canarygrass; [3]) | Plant response rating, Bromegrass, Downy (downy bromegrass; [1]) | Plant response rating, Bromegrass, Downy (downy bromegrass; [2]) | Plant response rating, Bromegrass, Downy (downy bromegrass; [3]) | Plant response rating, Windgrass (windgrass; [2]) | Plant response rating, Windgrass (windgrass; [3]) | Plant response rating, Wheat (wheat; [2]) | Plant response rating, Wheat (wheat; [3]) | Plant response rating, Foxtail, Green (green foxtail; [1]) | Plant response rating, Foxtail, Green (green foxtail; [2]) | Plant response rating, Foxtail, Green (green foxtail; [3]) | Plant response rating, Barley, Winter (winter barley; [1]) | Plant response rating, Barley, Winter (winter barley; [5]) | Plant response rating, Barley, Winter (winter barley; [6]) | Plant response rating, Oat, Wild (wild oat; [2]) | Plant response rating, Oat, Wild (wild oat; [3]) | further results |
| --- | --- | --- | --- | --- | --- | --- | --- | --- | --- | --- | --- | --- | --- | --- | --- | --- | --- | --- | --- | --- | --- |
| CCOC(=O)c1ccc(F)c(NC(=O)c2cc(C3(C)CC3)nn2CC)c1 [Compound 296] | 45 | 35 | 55 | 40 | 30 | 45 | 35 | 35 | 50 | 45 | 35 | 35 | 60 | 50 | 40 | 45 | 40 | 35 | 60 | 35 | Plant response rating, Ryegrass, Italian (Italian ryegrass; [1]): 65; Plant response rating, Canarygrass (canarygrass; [4]): 30; Plant response rating, Bromegrass, Downy (downy bromegrass; [4]): 25; Plant response rating, Windgrass (windgrass; [1]): 65; Plant response rating, Wheat (wheat; [1]): 40; Plant response rating, Barley, Winter (winter barley; [4]): 30; Plant response rating, Oat, Wild (wild oat; [1]): 60 |
| CCn1nc(C2(C)CC2)cc1C(=O)Nc1cccc(C(=O)N2CC=CC2)c1 [Compound 304] | 50 | 50 | 45 | 40 | 40 | 40 | 40 | 40 | 35 | 35 | 40 | 35 | 50 | 45 | 40 | 35 | 35 | 35 | 60 | 60 | Ryegrass, Italian plant response rating (Italian ryegrass; [7]): 50; Plant response rating, Ryegrass, Italian (Italian ryegrass; [1]): 50; Canarygrass plant response rating (canarygrass; [7]): 45; Bromegrass, Downy plant response rating (downy bromegrass; [7]): 50; Windgrass plant response rating (windgrass; [7]): 45; Plant response rating, Windgrass (windgrass; [1]): 40; Wheat plant response rating (wheat; [7]): 40; Plant response rating, Wheat (wheat; [1]): 40; Foxtail, Green plant response rating (green foxtail; [7]): 60; Barley, Winter plant response rating (winter barley; Postemergence, scale 0 to 100): 45; Oat, Wild plant response rating (wild oat; [7]): 70; Plant response rating, Oat, Wild (wild oat; [1]): 60 |
| CCn1nc(C(C)(C)C)cc1C(=O)Nc1cccc(OC(F)(F)C(F)F)c1 [Compound 333] | 35 | 35 | 40 | 35 | 35 | 45 |  | 40 | 25 | 20 | 50 | 40 | 50 | 40 | 30 | 55 | 45 | 40 | 60 | 50 | Ryegrass, Italian plant response rating (Italian ryegrass; [7]): 55; Plant response rating, Ryegrass, Italian (Italian ryegrass; [1]): 50; Canarygrass plant response rating (canarygrass; [7]): 45; Bromegrass, Downy plant response rating (downy bromegrass; [7]): 45; Windgrass plant response rating (windgrass; [7]): 80; Plant response rating, Windgrass (windgrass; [1]): 50; Wheat plant response rating (wheat; [7]): 55; Plant response rating, Wheat (wheat; [1]): 50; Foxtail, Green plant response rating (green foxtail; [7]): 65; Oat, Wild plant response rating (wild oat; [7]): 55; Plant response rating, Oat, Wild (wild oat; [1]): 60 |
| CCNC(=O)c1cccc(NC(=O)c2nn(C(C)(C)CC)nc2CC)c1 [Compound 376] | 55 | 45 | 55 | 50 | 45 | 40 | 35 | 35 | 40 | 40 | 20 | 20 | 60 | 60 | 40 | 30 | 20 | 20 | 45 | 40 | Plant response rating, Ryegrass, Italian (Italian ryegrass; [8]): 65; Plant response rating, Canarygrass (canarygrass; [8]): 65; Plant response rating, Bromegrass, Downy (downy bromegrass; [8]): 50; Plant response rating, Windgrass (windgrass; [8]): 65; Plant response rating, Wheat (wheat; [8]): 25; Plant response rating, Foxtail, Green (green foxtail; [8]): 65; Barley, Winter plant response rating (winter barley; Postemergence, scale 0 to 100): 40; Plant response rating, Oat, Wild (wild oat; [8]): 60 |
| C#CCNC(=O)c1cccc(NC(=O)c2nn(C(C)(C)C)nc2CC)c1 [Compound 380] | 50 | 45 | 45 | 40 | 40 | 65 | 60 | 55 | 60 | 45 | 25 | 20 | 60 | 60 | 60 | 30 | 20 | 20 | 60 | 55 | Plant response rating, Canarygrass (canarygrass; [4]): 30; Plant response rating, Bromegrass, Downy (downy bromegrass; [4]): 45; Plant response rating, Barley, Winter (winter barley; [4]): 10 |
| C#CCOc1cccc(NC(=O)c2cc(C(C)(C)C)nn2CC)c1 [Compound 411] | 60 | 45 | 65 | 60 | 60 | 45 | 40 | 40 | 55 | 40 | 35 | 35 | 65 | 65 | 60 | 35 | 35 | 30 | 60 | 60 | Plant response rating, Ryegrass, Italian (Italian ryegrass; [8]): 65; Plant response rating, Canarygrass (canarygrass; [8]): 65; Plant response rating, Bromegrass, Downy (downy bromegrass; [8]): 45; Plant response rating, Windgrass (windgrass; [8]): 65; Plant response rating, Wheat (wheat; [8]): 55; Plant response rating, Foxtail, Green (green foxtail; [8]): 70; Barley, Winter plant response rating (winter barley; Postemergence, scale 0 to 100): 40; Plant response rating, Oat, Wild (wild oat; [8]): 65 |
| C=CCOc1cccc(NC(=O)c2cc(C(C)(C)C)nn2CC)c1 [Compound 412] | 45 | 40 | 60 | 45 | 45 | 55 | 45 | 40 | 45 | 40 | 35 | 35 | 65 | 60 | 45 | 40 | 35 | 30 | 65 | 60 | Plant response rating, Ryegrass, Italian (Italian ryegrass; [8]): 60; Plant response rating, Canarygrass (canarygrass; [8]): 60; Plant response rating, Bromegrass, Downy (downy bromegrass; [8]): 60; Plant response rating, Windgrass (windgrass; [8]): 65; Plant response rating, Wheat (wheat; [8]): 50; Plant response rating, Foxtail, Green (green foxtail; [8]): 65; Barley, Winter plant response rating (winter barley; Postemergence, scale 0 to 100): 50; Plant response rating, Oat, Wild (wild oat; [8]): 70 |
